From PubChem BioAssay (NCI)
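A five-concentration, 48-hour dose response in 96-well plates underlies each endpoint, interpolated linearly between surrounding concentrations. The concentration for 50% growth inhibition is given as GI50. TGI denotes the concentration required for complete inhibition of growth.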

What was measured:
Test in all cases: growth of human tumour cells (NCI), 48 h
[1] = tested on: 786-0 renal
[2] = tested on: ACHN renal
[3] = tested on: HCT-15 colon
[4] = tested on: IGROV1 ovarian
[5] = tested on: K-562 leukemia
[6] = tested on: LOX IMVI melanoma
[7] = tested on: NCI-H460 lung
[8] = tested on: NCI/ADR-RES ovarian
[9] = tested on: OVCAR-8 ovarian
[10] = tested on: SK-MEL-2 melanoma

Compound	GI50 [1] [µM]	TGI [1] [µM]	GI50 [2] [µM]	TGI [2] [µM]	GI50 [3] [µM]	TGI [3] [µM]	GI50 [4] [µM]	TGI [4] [µM]	GI50 [5] [µM]	TGI [5] [µM]	GI50 [6] [µM]	TGI [6] [µM]	GI50 [7] [µM]	TGI [7] [µM]	GI50 [8] [µM]	TGI [8] [µM]	GI50 [9] [µM]	TGI [9] [µM]	GI50 [10] [µM]	TGI [10] [µM]
C[n+]1cc2cc3c(cc2c2ccccc21)OCO3	12.4	> 100	41.7	> 100	70.2	> 100	0.982	58	7.24	> 100	9.11	53.8	2.98	14.5	> 100	> 100	3.04	30.5	3.51	11.3
CCOC(=O)C(O)Cc1cnc2ccccc2n1 (stereo not given)	–	> 100	–	> 100	–	> 100	–	> 100	–	> 100	–	> 100	–	> 100	–	> 100	–	> 100	–	> 100
Cc1ccc(NC(=O)N2CCCCC2)cc1[N+](=O)[O-]	> 100	> 100	> 100	> 100	> 100	> 100	> 100	> 100	> 100	> 100	> 100	> 100	> 100	> 100	> 100	> 100	> 100	> 100	> 100	> 100
CC(C)c1ccc(/C=N/N=C(N)N)cc1	12.4	27.3	11.7	25.4	4.19	16.8	11	25.8	4.16	16.2	3.49	14.7	3.89	14.4	6.33	23.2	10.8	28.3	2.64	5.61
